Experimental data: patent US5585492A, “LTA4 Hydrolase inhibitors” (priority 1994, dated 1996)
Read-outs that look alike come from different tables or passages of the source.

Test system: LTB4 production in human blood
Assay: Inhibition of Calcium Ionophore-Induced LTB4 Production in Human Blood (HWB)
Type: cell-based
Details: human whole blood, A23187 20 mcg/ml, read-out: Inhibition of Calcium Ionophore-Induced LTB4 Production in Human Blood IC50 HWB
Experimental: One or more concentrations of the leukotriene A4 hydrolass inhibitor compounds being tested were prepared (diluted in DMSO) and 2 μl added and gently mixed with the diluted whole blood. After incubating for 15 minutes at 37° C. in a humidified incubator, calcium ionophore A23187 (Sigma Chemical Co., St. Louis, Mo.) was added to a final concentration of 20 mcg/ml and the incubation continued under the same conditions for an additional 10 minutes to allow LTB4 formation. The reaction was terminated by centrifugation (833 g, 10 minutes at 4° C.) and supernatant were analyzed for LTB4 and thromboxane by commercially available enzyme-linked immunoassays (Caymen Chemical Co., Ann Arbor, Mich.) according to the manufacturer's instructions. The IC50 of each test compound was determined from the amount of inhibition of LTB4 production as compared to an essentially identical assay in which no inhibitor compound was present.

SMILES	IC50 (Homo sapiens) [nM]	IC50 [nM]
NC(=O)C1CCN(CC2Cc3cc(Cc4ccccc4)cnc3O2)CC1 (stereo not shown) [Example 288]	960	–
CCOC(=O)CCNCCCCCOc1ccc(Cc2ccccc2)cc1 [Example 274]	1250	–
FC(F)(F)c1cccc(COc2ccc(OCCN3CCCC3)cc2)c1 [Example 209]	2340	–
Fc1ccccc1Cc1ccc(OCCN2CCCC2)cc1 [Example 141]	280	–
Fc1ccc(Oc2ccc(OCCN3CCCC3)cc2)cc1 [Example 48]	390	–
Fc1ccc(COc2ccc(OCCN3CCCC3)cc2)cc1 [Example 205]	1150	–
NC(=O)C1CCN(CCOc2ccc(Cc3cccc(F)c3)cc2)CC1 [Example 233]	490	–
CCOC(=O)CC1CCN(CCCOc2ccc(Cc3ccccc3)cc2)CC1 [Example 302]	2400	–
c1ccc(Oc2ccc3c(c2)CC(CN2CCCC2)O3)cc1 (stereo not shown) [Example 289]	316	–
Oc1ccc(Cc2ccc(OCCN3CCCC3)cc2)cc1 [Example 137]	80	–
O=C(CCNCCOc1ccc(Cc2ccccc2)cc1)OCc1ccccc1 [Example 266]	2640	–
NC(=O)C1CCN(CCOc2ccc(Cc3cccs3)cc2)CC1 [Example 229]	220	–
c1ccc2c(COc3ccc(OCCN4CCCC4)cc3)cccc2c1 [Example 214]	10000	–
c1ccc2ncc(COc3ccc(OCCN4CCCC4)cc3)cc2c1 [Example 201]	1750	–
c1ccc(Oc2ccc(NCCN3CCCC3)cc2)cc1 [Example 71]	4260	–
c1ccc2nc(Cc3ccc(OCCN4CCCC4)cc3)ccc2c1 [Example 131]	25000	–
CCOC(=O)CCNC(=O)C1CCN(CCOc2ccc(Cc3ccccc3)cc2)CC1 [Example 249]	429	–
COc1ccc(Cc2ccc(OCCN3CCCC3)cc2)cc1F [Example 144]	900	–
c1ccc(Cc2ccc(OCCCN3CCCC3)cc2)cc1 [Example 259]	440	–
COC(=O)CCNCCCOc1ccc(Cc2ccccc2)cc1 [Example 267]	580	–

SMILES	IC50 (Homo sapiens) [nM]	IC50 [nM]
Clc1ccccc1COc1ccc(OCCN2CCCC2)cc1 [Example 208]	2150	–
CNC(=O)C1CCN(CCOc2ccc(Oc3ccccc3)cc2)CC1 [Example 255]	608	–
NC(=O)C1CCN(CCOc2ccc(Cc3ccccc3)cn2)CC1 [Example 147]	730	–
[O-][S+](CCN1CCCC1)c1ccc(Cc2ccccc2)cc1 (stereo not shown) [Example 69]	11800	–
CC(=O)NC1CCN(CCOc2ccc(Cc3ccccc3)cc2)C1 (stereo not shown) [Example 256]	–	420
Cc1cc(Cc2ccccc2)ccc1OCCN1CCCC1 [Example 117]	4150	–
Fc1ccc(Cc2ccc(OCCN3CCCC3)cc2)cc1 [Example 139]	580	–
c1ccc(Cc2cnc3c(c2)CC(CN2CCCC2)O3)cc1 (stereo not shown) [Example 287]	2390	–
Fc1cccc(COc2ccc(OCCN3CCCC3)cc2)c1 [Example 211]	620	–
c1cc(OCCN2CCCC2)ccc1Cc1ccc2c(c1)OCO2 [Example 130]	1010	–
Fc1ccccc1COc1ccc(OCCN2CCCC2)cc1 [Example 207]	640	–
c1csc(COc2ccc(OCCN3CCCC3)cc2)c1 [Example 215]	190	–
c1ccc(Cc2ccc(OCCNC3CCCC3)cc2)cc1 [Example 241]	630	–
Cc1ccc(COc2ccc(OCCN3CCCC3)cc2)cc1 [Example 212]	3280	–
COc1ccc(Cc2ccc(OCCN3CCC(C(N)=O)CC3)cc2)cc1 [Example 232]	10000	–
COC(=O)C1CN(CCCOc2ccc(Cc3ccccc3)cc2)CCC1=O (stereo not shown) [Example 262]	2480	–
COc1ccc(COc2ccc(OCCN3CCCC3)cc2)cc1 [Example 213]	4650	–
NC(=O)C1CCCN(CCOc2ccc(Cc3ccccc3)cc2)C1 (stereo not shown) [Example 243]	650	–
CCOC(=O)C1CCCN(CCCOc2ccc(Cc3ccccc3)cc2)C1 (stereo not shown) [Example 269]	1180	–
Brc1ccc(COc2ccc(OCCN3CCCC3)cc2)cc1 [Example 203]	3300	–

Further lines, results first:

IC50 (Homo sapiens) [nM]	IC50 [nM]	SMILES
3570	–	c1ccc(COc2ccc(OCCn3cnc4ncccc43)cc2)cc1 [Example 346B]
528	–	NC(=O)C1CCN(CC2Cc3cc(Oc4ccccc4)ccc3O2)CC1 (stereo not shown) [Example 290]
142	–	c1ccc(Cc2ccc(OCCN3CC4CCC3CC4)cc2)cc1 [Example 500]
3200	–	NC(=O)C1CCN(CC2CCc3cc(Cc4ccccc4)ccc3O2)CC1 (stereo not shown) [Example 293]
828	–	CCOC(=O)CC1CCN(CCOc2ccc(Cc3ccccc3)cc2)CC1 [Example 301]
6600	–	O=C(Nc1ccccc1)OC[C@@H]1CCCN1CCOc1ccc(Cc2ccccc2)cc1 [Example 428]
2750	–	CC(CN1CCCCCC1)Oc1ccc(Cc2ccccc2)cc1 (stereo not shown) [Example 404]
758	–	CCOC(=O)[C@@H]1CCN(CCOc2ccc(Cc3ccccc3)cc2)[C@H](C)C1 (relative stereo) [Example 298]
1390	–	NC(=S)N1CCN(CCOc2ccc(Cc3ccccc3)cc2)CC1 [Example 458]
359	–	C[C@@H]1C[C@H](C(N)=O)CCN1CCOc1ccc(Cc2ccccc2)cc1 (relative stereo) [Example 297]
4000	–	c1ccc(Cc2ccc(OC(Cc3ccccc3)CN3CCCC3)cc2)cc1 (stereo not shown) [Example 406]
560	–	c1ccc(Oc2ccc(OCCn3cnc4ncccc43)cc2)cc1 [Example 348B]
1850	–	CCOC(=O)C1CCN(CC2Cc3cc(Oc4ccccc4)ccc3O2)CC1 (stereo not shown) [Example 291]
13600	–	c1ccc(Oc2ccc(OCCCn3cnc4cccnc43)cc2)cc1 [Example 350A]
8900	–	c1ccc(Cc2ccc(OCCCn3cnc4cccnc43)cc2)cc1 [Example 341A]
648	–	CC(=O)N[C@H]1C[C@@H](C)N(CCOc2ccc(Cc3ccccc3)cc2)[C@@H](C)C1 [Example 315]
2120	–	c1ccc(Cc2ccc(OCCn3ccc4ncccc43)cc2)cc1 [Example 342]
790	–	c1ccc(Oc2ccc(OCCn3cnc4ccncc43)cc2)cc1 [Example 349A]
5700	–	c1ccc(COc2ccc(OCCn3cnc4cnccc43)cc2)cc1 [Example 347B]
1970	–	CC(C)(O)CCNCCCOc1ccc(Cc2ccccc2)cc1 [Example 416]
290	–	O=C(O)[C@@H]1CCCN1CCCOc1ccc(Cc2ccccc2)cc1 [Example 430]
2230	–	Fc1ccc(Oc2ccc(OCCn3cnc4ccncc43)cc2)cc1 [Example 355A]
340	–	c1ccc(Cc2ccc(OCCCn3ccc4ncnc-4c3)cc2)cc1 [Example 356C]
900	–	CC1CC(C#N)CCN1CCOc1ccc(Cc2ccccc2)cc1 (stereo not shown) [Example 444]
628	–	NC(=O)N1CCN(CC2Cc3cc(Cc4ccccc4)ccc3O2)CC1 (stereo not shown) [Example 337]
180	–	NC1CCN(CCOc2ccc(Cc3ccccc3)cc2)CC1 [Example 455]

IC50 (Homo sapiens) [nM]	IC50 [nM]	SMILES
707	–	C#CC(CC(=O)OCC)NCCCOc1ccc(Cc2ccccc2)cc1 (stereo not shown) [Example 407]
5700	–	c1ccc(Oc2ccc(OCCn3cnc4cccnc43)cc2)cc1 [Example 348A]
160	–	NC(=NO)C1CCN(CC2Cc3cc(Cc4ccccc4)ccc3O2)CC1 (stereo not shown) [Example 446]
1230	–	COC(=O)C1(O)CCN(CCOc2ccc(Cc3ccccc3)cc2)CC1 [Example 305]
2050	–	c1ccc(Oc2ccc(OCCCn3cnc4cnccc43)cc2)cc1 [Example 351B]
1770	–	CCOC(=O)C1CCN(CCOc2ccc(Cc3cccc(F)c3)cc2)CC1 [Example 309]
1530	–	NC(=O)C1CCN(CCOc2ccc(Cc3ccccc3)s2)CC1 [Example 369]
600	–	Fc1ccc(Oc2ccc(OCCn3cnc4ncccc43)cc2)cc1 [Example 354B]
850	–	O=C(CCNCCCOc1ccc(Cc2ccccc2)cc1)N1CCOCC1 [Example 424]
216	–	C1=CC2CC1CN2CCOc1ccc(Cc2ccccc2)cc1 (stereo not shown) [Example 497]
200	–	c1ccc(Oc2ccc(OCCn3ccc4ncnc-4c3)cc2)cc1 [Example 349C]
532	–	NC(=O)C1(O)CCN(CCOc2ccc(Cc3ccccc3)cc2)CC1 [Example 427]
220	–	CC1CCC(C)N1CCOc1ccc(Cc2ccccc2)cc1 (stereo not shown) [Example 399]
470	–	C[C@H]1C[C@@H](O)CCN1CCOc1ccc(Cc2ccccc2)cc1 (relative stereo) [Example 465]
4200	–	c1ccc(Cc2ccc3c(c2)CC(Cn2cccc4ncnc2-4)O3)cc1 (stereo not shown) [Example 359C]
630	–	CC(CN(C)CCCOc1ccc(Cc2ccccc2)cc1)C(=O)O (stereo not shown) [Example 432]
1670	–	c1ccc(Oc2ccc(OCCCn3cccc4ncnc3-4)cc2)cc1 [Example 350C]
2720	–	c1ccc(Oc2ccc(OCCCn3cnc4ccncc43)cc2)cc1 [Example 351A]
1180	–	Fc1ccc(Oc2ccc(OCCn3cccc4ncnc3-4)cc2)cc1 [Example 354C]
7700	–	COC(=O)C1CC2CC1CN(CCOc1ccc(Cc3ccccc3)cc1)C2 (stereo not shown) [Example 504]
950	–	c1ccc(Oc2ccc(OCCCn3cnc4ncccc43)cc2)cc1 [Example 350B]
930	–	c1ccc(Cc2ccc(OCCCn3cnc4ncccc43)cc2)cc1 [Example 341B]
604	–	CNC(=O)C1CCN(CC2Cc3cc(Cc4ccccc4)ccc3O2)CC1 (stereo not shown) [Example 295]
2510	–	CCOC(=O)CC1CCN(CCOc2ccc(Oc3ccccc3)cc2)CC1 [Example 300]
825	–	O=c1[nH]c(C2CCN(CCOc3ccc(Cc4ccccc4)cc3)CC2)no1 [Example 448]
